Measurements taken from ChEMBL document CHEMBL5150014, “Discovery and Development of Dolastatin 10-Derived Antibody Drug Conjugate Anticancer Drugs” (J Nat Prod, 2022).
Starred links: 1 amine or outer side, 2 acyl side, 3 side chain; linkers in the order of their positions; H or OH if unused. Non-standard residues stand in square brackets, D forms with d. Residues, ends and D or L forms follow the SMILES beside them. *: point of attachment. Dolaproine(4S-N3) = CO[C@H]([C@@H](C)C(=O)[*:2])[C@@H]1C[C@H](N=[N+]=[N-])CN1[*:1]; X2 = CO[C@H]([C@@H](C)C(=O)[*:2])[C@@H]1C[C@@H]2C[C@@H]2N1[*:1]; NMeVal(N-(CH2)3COOH) = CC(C)[C@@H](C(=O)*)N(C)CCCC(=O)O; Dolaproine = CO[C@@H]([C@@H]1CCCN1)[C@@H](C)C(=O)O; Abu(3S-N3) = C[C@H](N=[N+]=[N-])[C@H](N)C(=O)O; Dil = CC[C@H](C)[C@H](NC)[C@@H](CC(=O)O)OC; Phe(2-Cl) = N[C@@H](Cc1ccccc1Cl)C(=O)O; Phe(2-F) = N[C@@H](Cc1ccccc1F)C(=O)O; NMe2Val = CC(C)[C@@H](C(=O)*)N(C)C; Oxazinan2yl(1,2) = C1CCN(*)OC1; X4 = C1=C[C@H]2CC[C@@H]1N(*)O2; NMeV = CN[C@H](C(=O)O)C(C)C; NHOH = ON*

Columns and labels:
HT-29 = test: Cytotoxicity against human HT-29 cells assessed as cell growth inhibition; assay type: functional, cell-based
BT-474 = test: Anticancer activity against human BT-474 assessed as cell growth inhibition incubated for 4 days by WST-8 assay; assay type: functional; details: BT-474, 96 h, time 4 day
Tubulin = test: Inhibition of tubulin (unknown origin) polymerization assessed as reduction in microtubule formation measured for 20 mins by spectrophotometric analysis; assay type: protein-complex assay, Homo sapiens
[1] = tested on: Panel NCI-60 (60 carcinoma cell lines); test: Cytotoxicity against human Panel NCI-60 (60 carcinoma cell lines) assessed as cell growth inhibition; assay type: functional, cell-based
H3396 [2] = test: Cytotoxicity against human H3396 cells assessed as cell growth inhibition; assay type: functional, cell-based
SK-BR-3 = test: Cytotoxicity against human SK-BR-3 cells assessed as cell growth inhibition incubated for 72 hrs by CellTiter-Glo assay; assay type: functional
MOLM-13 = test: Cytotoxicity against human MOLM-13 cells assessed as cell growth inhibition; assay type: functional, cell-based
H3396 [3] = test: Cytotoxicity against human H3396 cells assessed as cell growth inhibition measured after 96 hrs by resazurin dye based assay; assay type: functional
HCT-116 = test: Cytotoxicity against human HCT-116 cells assessed as cell growth inhibition measured after 96 hrs by resazurin dye based assay; assay type: functional
L1210 = test: Cytotoxicity against mouse L1210 cells assessed as cell growth inhibition measured after 24 hrs; assay type: functional, cell-based; details: L1210, 24 h

CC[C@H](C)[C@@H]([C@@H](CC(=O)N1CCC[C@H]1[C@H](OC)[C@@H](C)C(=O)N[C@H](/C=C/c1ccccc1)Cc1ccccc1)OC)N(C)C(=O)[C@@H](NC(=O)[C@H](C(C)C)N(C)CCCC(=O)O)C(C)C
IC50 (HT-29): 0.3 nM

CC[C@H](C)[C@@H]([C@@H](CC(=O)N1C[C@@H](NC)C[C@H]1[C@H](OC)[C@@H](C)C(=O)NCCc1c(F)cccc1F)OC)N(C)C(=O)[C@@H](NC(=O)[C@H](C(C)C)N(C)C)C(C)C
GI50 (BT-474): 0.34 nM

CC[C@H](C)[C@@H]([C@@H](CC(=O)OC(C)(C)C)OC)N(C)C(=O)[C@@H](NC(=O)[C@H](C(C)C)N(C)C)C(C)C
IC50 (Tubulin): 4.2 nM

CC[C@H](C)[C@@H]([C@@H](CC(=O)N1CCC[C@H]1[C@H](OC)[C@@H](C)C(=O)N[C@@H](Cc1ccccc1)C(=O)OC)OC)N(C)C(=O)[C@@H](NC(=O)[C@H](C(C)C)N(C)C)C(C)C (NMe2Val-V[Dil][Dolaproine]F-OMe)
GI50 [1]: 0.2 nM

CC[C@H](C)[C@@H]([C@@H](CC(=O)N1CCC[C@H]1[C@H](OC)[C@@H](C)C(=O)N[C@@H](Cc1ccccc1)c1nnc(-c2ccccc2)o1)OC)N(C)C(=O)[C@@H](NC(=O)[C@H](C(C)C)N(C)CCCC(=O)O)C(C)C
IC50 (HT-29): 0.1 nM

CC[C@H](C)[C@@H]([C@@H](CC(=O)N1CCC[C@H]1[C@H](OC)[C@@H](C)C(=O)N[C@@H](Cc1ccccc1)C(=O)OC)OC)N(C)C(=O)[C@@H](NC(=O)[C@@H](NC)C(C)C)C(C)C (H-[NMeV]V[Dil][Dolaproine]F-OMe)
IC50 (H3396 [2]): < 0.001 nM

CC[C@H](C)[C@@H]([C@@H](CC(=O)N1C[C@@H](O)C[C@H]1[C@H](OC)[C@@H](C)C(=O)NCCc1c(F)cccc1F)OC)N(C)C(=O)[C@@H](NC(=O)[C@H](C(C)C)N(C)C)C(C)C
GI50 (BT-474): 0.23 nM

CC[C@H](C)[C@@H]([C@@H](CC(=O)N1[C@H]2C[C@H]2C[C@H]1[C@H](OC)[C@@H](C)C(=O)N[C@@H](Cc1ccccc1Cl)C(=O)O)OC)N(C)C(=O)[C@@H](NC(=O)[C@@H](NC)C(C)C)C(C)C (H-[NMeV]V[Dil][X2][Phe(2-Cl)]-OH)
GI50 (SK-BR-3): 1.06 nM

CC[C@H](C)[C@@H]([C@@H](CC(=O)N1C[C@@H](N=[N+]=[N-])C[C@H]1[C@H](OC)[C@@H](C)C(=O)N[C@@H](Cc1ccccc1)C(=O)OC)OC)N(C)C(=O)[C@@H](NC(=O)[C@H](C(C)C)N(C)C)[C@H](C)N=[N+]=[N-]
GI50 (MOLM-13): 0.057 nM

CC[C@H](C)[C@@H]([C@@H](CC(=O)N1C[C@@H](N=[N+]=[N-])C[C@H]1[C@H](OC)[C@@H](C)C(=O)N[C@@H](Cc1ccccc1)C(=O)OC)OC)N(C)C(=O)[C@@H](NC(=O)[C@@H](NC)C(C)C)[C@H](C)N=[N+]=[N-] (H-[NMeV][Abu(3S-N3)][Dil][Dolaproine(4S-N3)]F-OMe)
GI50 (MOLM-13): 0.279 nM

CC[C@H](C)[C@@H]([C@@H](CC(=O)N1CCC[C@H]1[C@H](OC)[C@@H](C)C(=O)N[C@@H](Cc1ccccc1)C(=O)O)OC)N(C)C(=O)[C@@H](NC(=O)[C@H](C(C)C)N(C)C)C(C)C (NMe2Val-V[Dil][Dolaproine]F-OH)
IC50 [1]: 105 nM

CC[C@H](C)[C@@H]([C@@H](CC(=O)N1CC(=O)C[C@H]1[C@H](OC)[C@@H](C)C(=O)NCCc1ccccc1)OC)N(C)C(=O)[C@@H](NC(=O)[C@H](C(C)C)N(C)C)C(C)C
GI50 (BT-474): 5.23 nM

CC[C@H](C)[C@@H]([C@@H](CC(=O)N1C[C@@H](OC)C[C@H]1[C@H](OC)[C@@H](C)C(=O)NCCc1ccccc1)OC)N(C)C(=O)[C@@H](NC(=O)[C@H](C(C)C)N(C)C)C(C)C
GI50 (BT-474): 0.24 nM

CCOP(=O)(OCC)[C@H](Cc1ccccc1)NC(=O)[C@H](C)[C@@H](OC)[C@@H]1CCCN1C(=O)C[C@@H](OC)[C@H]([C@@H](C)CC)N(C)C(=O)[C@@H](NC(=O)[C@H](C(C)C)N(C)C)C(C)C
GI50 (H3396 [3]): 0.09 nM | GI50 (HCT-116): 6 nM

CC[C@H](C)[C@@H]([C@@H](CC(=O)N1CCC[C@H]1[C@H](OC)[C@@H](C)C(=O)N[C@@H](Cc1ccccc1)C(=O)N1O[C@H]2C=C[C@@H]1CC2)OC)N(C)C(=O)[C@@H](NC(=O)[C@H](C(C)C)N(C)C)C(C)C (NMe2Val-V[Dil][Dolaproine]F-X4)
IC50 (HT-29): 0.5 nM

CC[C@H](C)[C@@H]([C@@H](CC(=O)N1[C@H]2C[C@H]2C[C@H]1[C@H](OC)[C@@H](C)C(=O)N[C@@H](Cc1ccccc1)C(=O)O)OC)N(C)C(=O)[C@@H](NC(=O)[C@@H](NC)C(C)C)C(C)C (HELM PEPTIDE1{[meV].V.[CC[C@H](C)[C@@H]([C@@H](CC(=O)[*:2])OC)N(C)[*:1]].[CO[C@H]([C@@H](C)C(=O)[*:2])[C@@H]1C[C@@H]2C[C@@H]2N1[*:1]].F}$$$$V2.0)
GI50 (SK-BR-3): 1.11 nM

CC[C@H](C)[C@@H]([C@@H](CC(=O)N1C[C@@H](N)C[C@H]1[C@H](OC)[C@@H](C)C(=O)NCCc1c(F)cccc1F)OC)N(C)C(=O)[C@@H](NC(=O)[C@H](C(C)C)N(C)C)C(C)C
GI50 (BT-474): 0.17 nM

CC[C@H](C)[C@@H]([C@@H](CC(=O)N1CCC[C@H]1[C@H](OC)[C@@H](C)C(=O)N[C@@H](CC(C)C)C(=O)NO)OC)N(C)C(=O)[C@@H](NC(=O)[C@H](C(C)C)N(C)C)C(C)C (NMe2Val-V[Dil][Dolaproine]L-{NHOH})
GI50 (SK-BR-3): 3 nM

CC[C@H](C)[C@@H]([C@@H](CC(=O)N1CCC[C@H]1[C@H](OC)[C@@H](C)C(=O)NC1(C(=O)N2Cc3ccccc3CO2)C[C@@H]1c1ccccc1)OC)N(C)C(=O)[C@@H](NC(=O)[C@H](C(C)C)N(C)C)C(C)C (some centres undefined)
IC50 (HT-29): 1.2 nM

CC[C@H](C)[C@@H]([C@@H](CC(=O)N1CCC[C@H]1[C@H](OC)[C@@H](C)C(=O)NC1(C(=O)N2CCCCO2)C[C@@H]1c1ccccc1)OC)N(C)C(=O)[C@@H](NC(=O)[C@H](C(C)C)N(C)C)C(C)C (some centres undefined)
IC50 (HT-29): 0.5 nM

CC[C@H](C)[C@@H]([C@@H](CC(=O)N1CCC[C@H]1/C=C(\C)C(=O)N[C@@H](Cc1ccccc1)c1nccs1)OC)N(C)C(=O)[C@@H](NC(=O)[C@H](C(C)C)N(C)C)C(C)C
IC50 (L1210): > 10000 nM

CC[C@H](C)[C@@H]1[C@H](OC)CC(=O)N2C[C@H](C[C@H]2[C@H](OC)[C@@H](C)C(=O)N[C@@H](Cc2ccccc2)C(=O)OC)NC(=O)CCCC(=O)N[C@@H](C)[C@H](NC(=O)[C@H](NC)C(C)C)C(=O)N1C
IC50 (MOLM-13): > 1000 nM

CC[C@H](C)[C@@H]([C@@H](CC(=O)N1CCC[C@H]1[C@H](OC)[C@@H](C)C(=O)N[C@@H](Cc1c[nH]c2ccccc12)C(N)=O)OC)N(C)C(=O)[C@@H](NC(=O)[C@H](C(C)C)N(C)CCCC(=O)O)C(C)C ({NMeVal(N-(CH2)3COOH)}-V[Dil][Dolaproine]W-NH2)
IC50 (HT-29): 16 nM

CC[C@H](C)[C@@H]([C@@H](CC(=O)N1CCC[C@H]1[C@H](OC)[C@@H](C)C(=O)N[C@H](/C=C\c1ccccc1)Cc1ccccc1)OC)N(C)C(=O)[C@@H](NC(=O)[C@H](C(C)C)N(C)CCCC(=O)O)C(C)C
IC50 (HT-29): 3.3 nM

CC[C@H](C)[C@@H]([C@@H](CC(=O)N1C[C@@H](N=[N+]=[N-])C[C@H]1[C@H](OC)[C@@H](C)C(=O)N[C@@H](Cc1ccccc1)C(=O)OC)OC)N(C)C(=O)[C@@H](NC(=O)[C@@H](NC)C(C)C)C(C)C (H-[NMeV]V[Dil][Dolaproine(4S-N3)]F-OMe)
GI50 (MOLM-13): 0.224 nM

CC[C@H](C)[C@@H]([C@@H](CC(=O)N1CCC[C@H]1[C@H](OC)[C@@H](C)C(=O)N[C@@H](Cc1ccccc1)c1nn[nH]n1)OC)N(C)C(=O)[C@@H](NC(=O)[C@H](C(C)C)N(C)C)C(C)C
GI50 (H3396 [3]): 0.09 nM | GI50 (HCT-116): 6 nM

CC[C@H](C)[C@@H]([C@@H](CC(=O)N1CCC[C@H]1[C@H](OC)[C@@H](C)C(=O)N[C@@H](Cc1c[nH]c2ccccc12)C(=O)N1CCCCO1)OC)N(C)C(=O)[C@@H](NC(=O)[C@H](C(C)C)N(C)C)C(C)C (NMe2Val-V[Dil][Dolaproine]W-{Oxazinan2yl(1,2)})
IC50 (HT-29): 0.5 nM

CC[C@H](C)[C@@H]([C@@H](CC(=O)N1CCC[C@H]1[C@H](OC)[C@@H](C)C(=O)NCCc1ccccc1)OC)N(C)C(=O)[C@@H](NC(=O)[C@H](C(C)C)N(C)C)C(C)C [SOBLIDOTIN]
GI50 [1]: 0.49 nM

CC[C@H](C)[C@@H]([C@@H](CC(=O)N1C[C@H](O)C[C@H]1[C@H](OC)[C@@H](C)C(=O)NCCc1ccccc1)OC)N(C)C(=O)[C@@H](NC(=O)[C@H](C(C)C)N(C)C)C(C)C
GI50 (BT-474): 0.68 nM

CC[C@H](C)[C@@H]([C@@H](CC(=O)N1C[C@@H](F)C[C@H]1[C@H](OC)[C@@H](C)C(=O)N[C@@H](Cc1ccccc1)C(=O)O)OC)N(C)C(=O)[C@@H](NC(=O)[C@@H](NC)C(C)C)C(C)C (HELM PEPTIDE1{[meV].V.[CC[C@H](C)[C@@H]([C@@H](CC(=O)[*:2])OC)N(C)[*:1]].[CO[C@H]([C@@H](C)C(=O)[*:2])[C@@H]1C[C@H](F)CN1[*:1]].F}$$$$V2.0)
GI50 (SK-BR-3): 81.7 nM

CC[C@H](C)[C@@H]([C@@H](CC(=O)N1CCC[C@H]1[C@@H](OC)[C@@H](C)C(=O)N[C@@H](Cc1ccccc1)c1nccs1)OC)N(C)C(=O)[C@@H](NC(=O)[C@H](C(C)C)N(C)C)C(C)C
IC50 (L1210): > 10000 nM

CC[C@H](C)[C@@H]([C@@H](CC(=O)N1CCC[C@H]1[C@H](OC)[C@@H](C)C(=O)N[C@@H](Cc1ccccc1F)C(=O)O)OC)N(C)C(=O)[C@@H](NC(=O)[C@@H](NC)C(C)C)C(C)C (H-[NMeV]V[Dil][Dolaproine][Phe(2-F)]-OH)
GI50 (SK-BR-3): 81.6 nM
